Test results from US10975123B2, “Mutant Akt-specific capture agents, compositions, and methods of using and making” (California Institute of Technology, priority 2014, dated 2021).
Where a SMILES comes first, the peptide text is derived from it. [ ]: non-standard residue; d: D form.

Molecular target: T1, wildtype PH Domain (PHD) of Akt1 (Homo sapiens, UniProt P31749)
T1 construct: The first 124 N-terminal amino acids from full length Akt1 were used as the PH Domain DNA; made in house; host or cells: E. coli
Experiment: Streptavidin-agarose immunoprecipitation (pulldown), WT
Type: binding
Details: streptavidin agarose, 1xTBS, western blot band size, in words
Description: Four biligand candidates were chosen based on their hydrophobicity and sequence homology using principal component analysis (FIG. 25). Biligands were synthesized by coupling the 2° ligand onto Rink Amide Resin on the Titan peptide synthesizer. The amide group on the end of the Lys(N3) was capped by shaking the resin with 2 mL acetic anhydride, 2 mL NMP and 0.5 mL DIEA for 3×10 minutes, then washed with NMP. FMOC-Propargylglycine-Otbu (Pra) was clicked onto the Lys(N3) on the 2° ligand by incubating 2 eq of the Pra amino acid with 2 eq CuI and 2 eq ascorbic acid with 1 eq azide on resin in 20% piperidine/NMP for 3 hours. The resin was washed 5×4 mL with a chelating solution of 1 g sodium diethyldithiocarbamate in 20 mL NMP and 1 mL DIEA. The anchor was then built onto the 2° ligand on bead, and an N-terminal PEG5-biotin tag were added. Assays were performed exactly as for the anchor ligands, except for two key differences. The biligand assays were done with 6 ug of GST-tagged PHD protein, instead of the untagged PHD that was used in the anchor pulldowns. The pull-downs were also conducted out of 1% serum in 1×TBS, as opposed to just 1×TBS.
Pulldown assays were done on Streptavidin Agarose resin from Invitrogen. The resin was incubated with N-terminal biotinylated anchor peptide candidates identified via the ClusterLigand sequence analysis. The anchor candidate coated beads were then incubated with either the wildtype or mutant protein to compare the selectivity of the ligands, as well as the binding ability. The bound protein was eluted and western blotted to compare the amount of protein present for each sample.
Relative protein band sizes were analyzed to compare binding between the anchor candidates and were used to determine selectivity for either wildtype or mutant PH Domain (FIG. 11). […] Both of these ligands look fairly selective for their respective PH Domain.

T1 sequence (P31749 1-124): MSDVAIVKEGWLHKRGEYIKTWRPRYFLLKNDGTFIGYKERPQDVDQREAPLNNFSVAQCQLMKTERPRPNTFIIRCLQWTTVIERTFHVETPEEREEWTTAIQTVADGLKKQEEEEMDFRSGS

## CC(C)C[C@@H](NC(=O)[C@H](N)Cc1ccc(O)cc1)C(=O)N[C@H](CCC(=O)O)C(=O)N[C@H](C)C(=O)N[C@H](Cc1ccccc1)C(N)=O [yleaf] (H-[dY][dL][dE][dA][dF]-NH2; N-terminus assumed)
  pulldown of wildtype PH Domain by biotinylated anchor candidates: the least binding to the wildtype
